Measured values published in US10905676B2, “Angiotensin II receptor antagonist for the prevention or treatment of systemic diseases in cats” (priority 2017, dated 2021).

Test system: cats with moderate to severe systemic hypertension
Assay: European study of efficacy and safety in cats with systemic hypertension (Example 6)
Assay type: in vivo
Protocol: A European study was conducted to investigate the efficacy and safety of telmisartan oral solution for the treatment of systemic hypertension in cats. The first part or phase of the study (Day 1 to Day 28) occurred over a 28-day placebo-controlled, double-blinded treatment period (efficacy phase of the study). […] The target population for this study was domestic client-owned cats with moderate to severe systemic hypertension (cats having a mSBP of at least about 160 mmHg). […] A schematic overview of the study and the two phases of treatment is depicted in FIG. 3. There was a similar pre-treatment mSBP observed for both treatment groups (about 177-179 mmHg). Cats diagnosed with moderate to severe systemic hypertension in compliance with the “ACVIM consensus statement: Guidelines for the Identification, Evaluation, and Management of Systemic Hypertension in Dogs and Cats” (Brown et al. Guidelines for the identification, evaluation, and management of systemic hypertension in dogs and cats. ACVIM Consensus Statement. J Vet Intern Med 2007; 21: 542-558) at two separate Screening Visits within 14 days of the start of treatment were eligible for the study. The etiology of the hypertension was classified as due to chronic kidney disease (CKD), due to hyperthyroidism, due to both CKD and hyperthyroidism or as idiopathic hypertension. Cats were not allowed any substances which are known to affect blood pressure from 14 days prior to the start of treatment. […] A 5 mL dosing syringe (demarcated in 0.25 mL increments) was used for the first phase and a 2 mL dosing syringe (demarcated in 0.1 mL increments, to achieve down titrations as necessary) to perform dosing either directly into the mouth of the cat or with a very small amount of food. For the first (efficacy) phase of the study, all recruited cats were examined on two visits at Day 14 and Day 28. Examinations included measurement of mSBP, a complete physical examination, fundoscopic examination, an assessment of quality of life, and abbreviated clinical pathology (hematology and biochemistry). […] These cats were further examined, as above, for visits at Days 56, 84 and 120. During the second (extended) phase of the study, it was possible to decrease or down titrate the dose for certain cats as described herein.

CCCc1nc2c(C)cc(-c3nc4ccccc4n3C)cc2n1Cc1ccc(-c2ccccc2C(=O)O)cc1 [telmisartan, 4′-[2-n-propyl-4-methyl-6-(1-methylbenzimidazol-2-yl)-benzimidazol-1-ylmethyl]-biphenyl-2-carboxylic acid]
mSBP change on Day 28 (2.0 mg/kg once daily oral, n = 165): −24.629 ΔmmHg | mSBP change on Day 14 (2.0 mg/kg once daily oral, n = 174): −19.219 ΔmmHg | Mean SABP reduction compared to baseline at respective visit (SABP at baseline between 160-179 mmHg (171.9), Day 14, n = 98): −16.7 ΔmmHg | Mean SABP reduction compared to baseline at respective visit (SABP at baseline between 160-179 mmHg, Day 28, n = 94): −22.9 ΔmmHg | Mean SABP reduction compared to baseline at respective visit (SABP at baseline between 160-179 mmHg, Day 56, n = 87): −24.7 ΔmmHg | Mean SABP reduction compared to baseline at respective visit (SABP at baseline between 160-179 mmHg, Day 84, n = 85): −23.2 ΔmmHg | Mean SABP reduction compared to baseline at respective visit (SABP at baseline between 160-179 mmHg, Day 120, n = 81): −23.5 ΔmmHg | Mean SABP reduction compared to baseline at respective visit (SABP at baseline between 180-200 mmHg (188.4), Day 14, n = 76): −22.3 ΔmmHg | Mean SABP reduction compared to baseline at respective visit (SABP at baseline between 180-200 mmHg, Day 28, n = 71): −26.6 ΔmmHg | Mean SABP reduction compared to baseline at respective visit (SABP at baseline between 180-200 mmHg, Day 56, n = 65): −29.6 ΔmmHg | Mean SABP reduction compared to baseline at respective visit (SABP at baseline between 180-200 mmHg, Day 84, n = 63): −30.7 ΔmmHg | Mean SABP reduction compared to baseline at respective visit (SABP at baseline between 180-200 mmHg, Day 120, n = 63): −32.9 ΔmmHg | % of cats with Systolic Blood Pressure < 160 mmHg (Visit Day 14): 46.6% | N of cats with Systolic Blood Pressure < 160 mmHg (Visit Day 14): 81 | % of cats with Systolic Blood Pressure < 160 mmHg (Visit Day 56): 70.9% | N of cats with Systolic Blood Pressure < 160 mmHg (Visit Day 56): 105 | % of cats with Systolic Blood Pressure < 160 mmHg (Visit Day 84): 67.8% | N of cats with Systolic Blood Pressure < 160 mmHg (Visit Day 84): 97 | % of cats with Systolic Blood Pressure < 160 mmHg (Visit Day 120): 73.1% | N of cats with Systolic Blood Pressure < 160 mmHg (Visit Day 120): 98 | % of cats with Systolic Blood Pressure < 160 mmHg (Visit day 28): 62.0% | N of cats with Systolic Blood Pressure < 160 mmHg (Visit day 28): 101 | cats with an increased appetite (between day −1 and 28): 11% | reduction in mSBP (mean change in SBP from baseline) (each visit day, whole study duration of 120 days): greater than 20 mmHg | cats with adverse events (efficacy phase, 115 adverse events coded for 58 cats): 29.9% | cats in which it was possible to down-titrate the dose to <2 mg/kg (extended use phase): 21.7% | Mean Systolic Blood Pressure change on Day 120 compared to baseline SBP (extended use phase, n = 144 cats): −27.62 ΔmmHg | Mean Systolic Blood Pressure change on Day 84 compared to baseline SBP (extended use phase, n = 148 cats): −26.50 ΔmmHg | Mean Systolic Blood Pressure change on Day 56 compared to baseline SBP (extended use phase, n = 152 cats): −26.94 ΔmmHg | changes in a physical or clinical pathology parameter (following 120 days of treatment): no clinically relevant changes | mean body weight, mean heart rate, respiratory rate, and rectal temperature (following 120 days treatment): no clinically significant change | cats with at least one adverse event (second (extended use) phase, 62 cats): 32.0%
